# Measurements: US12215112B2, “CD151 inhibitors” (ESFAM BIOTECH PTY LTD, priority 2020, dated 2025)
# System: PC3 cells
# Test: xCELLigence RTCA real-time cell invasion assay (CIM plate, Matrigel) on PC3 prostate cancer cells
# Type: cell-based
# Conditions: Homo sapiens, PC-3, compound 25 uM to 1 uM, cell index monitored for 72 hours, four-parameter dose-response curve, read-out: IC50, Effect of compounds on the invention on prostate cancer cells
# Protocol: The media antibiotics and serum were purchased from Invitrogen (Life Technologies). PC3 cells were purchased from ATCC (Granville, NSW, Australia). PC3 cells were expanded in cell culture T75 flasks with vented cap and then preserved in low passage number. The medium used for PC3 cells was RPMI (GlutaMAX) supplemented with 10% FCS and 1% penicillin/streptomycin (culture media). The cells were maintained at 37° C. in a humidified 95% (v/v) air/5% (v/v) CO2 environment and were grown up to 80% confluence.
# XCELLigence® real-time cell analysis (RTCA) instrument (ACEA Biosciences), 16-well ACEA CIM-Plates, 16-well ACEA E-Plat and assembly tool were purchased from ELITechGroup empowering IVD (Braeside, Australia). The Matrigel was purchased from Corning (Australia).
# To measure cell invasion under compound treatment the upper chamber of the CIM plate was coated with 5% Matrigel diluted in SF RPMI (20 μl) and incubated in a 37° C. tissue culture incubator for four hours. Using the assembly tool to support the chambers the lower chamber was filled with (160 μl) of culture media containing the compound in specific concertation from 25 uM to 1 uM and two controls (DMSO 0.1% and ESFAM 4C 10 uM) (see the schematic in FIG. 1). Once the upper chamber was placed on the top of the lower chamber it was loaded with (40 μl) serum-free (SF) RPMI containing the compound as previously stated. After one hour calibration in 37° C., plates were placed into the xCELLigence station, and the base-line electric impedance was measured to confirm that all wells and connections were working properly. In case of connection problem, the software automatically informs the researcher about the nature of the problem in the message section. Subsequently cells were trypsinized and upon harvesting and counting they were diluted in SF RPMI to desired density (3×10^4) and seeded (100 μl) in the wells. After 30 minutes of incubation in room-temperature to allow cell attachment the plates were loaded in the xCELLigence RTCA DP machine. The cell invasion was monitored in real-time for the duration of 72 hours. […]
# The xCELLigence system automatically monitored the electrical impedance value of each well and expressed as a cell index (CI) value for the duration of 72 hours. The data for treatments was automatically grouped as the mean±standard deviation. The software version used in these experiments is 1.2.1. The electronic record of the experimental data is automatically saved in file that cannot be altered or changed by the researcher.
# Statistical analysis was performed using Microsoft® Office EXCEL and GraphPad Prism 7. The IC50 was calculated from the four-parameter dose-response curve (log(inhibitor) vs. response-variable slopes). Where the row-data was inserted in GraphPad Prism 7 (Dose response x-log(dose)) and analysed for XY nonlinear regression (curve fit), dose response-inhibition, log(inhibitor) vs response variable slope (four parameters). For the IC90 calculation the log(IC50)=log(IC90)-(1/HillSlope)*log(9) equation was used in EXCEL based on the raw data extracted from xCELLigence system and the dose-response curve.
row,IC50 [µM],SMILES
1,3.11,"COc1cccc(NC(=O)c2nn3c(-c4cn[nH]c4)cc(N4Cc5ccc(Cl)cc5C4)nc3c2C(C)(C)C)c1 [Compound 89, 3-(tert-butyl)-5-(5-chloroisoindolin-2-yl)-N-(3-methoxyphenyl)-7-(1H-pyrazol-4-yl)pyrazolo[1,5-a]pyrimidine-2-carboxamide]"
2,1.42,"O=C(Nc1cccc(O)c1)c1cc2nc(N3Cc4ccccc4C3)cc(-c3cn[nH]c3)n2n1 [Compound 24, N-(3-hydroxyphenyl)-5-(isoindolin-2-yl)-7-(1H-pyrazol-4-yl)pyrazolo[1,5-a]pyrimidine-2-carboxamide]"
3,4.71,"CN(Cc1ccccc1)c1cc(-c2cn[nH]c2)n2nc(C(=O)Nc3cccc(C#N)c3)cc2n1 [Compound 13, 5-(benzyl(methyl)amino)-N-(3-cyanophenyl)-7-(1H-pyrazol-4-yl)pyrazolo[1,5-a]pyrimidine-2-carboxamide]"
4,1,"CC(=O)N1CCN(c2ccc(NC(=O)c3nn4c(-c5cn[nH]c5)cc(N5Cc6ccc(F)cc6C5)nc4c3C(C)C)cc2)CC1 [Compound 80, N-(4-(4-acetylpiperazin-1-yl)phenyl)-5-(5-fluoroisoindolin-2-yl)-3-isopropyl-7-(1H-pyrazol-4-yl)pyrazolo[1,5-a]pyrimidine-2-carboxamide]"
5,6.51,CC(C)(C)c1c(C(=O)Nc2cccc(O)c2)nn2c(-c3cn[nH]c3)cc(N3Cc4ccccc4C3)nc12 [Cmpd 85]
6,4.94,"COc1ccc(F)c(NC(=O)c2nn3c(-c4cn[nH]c4)cc(N4Cc5ccc(Cl)cc5C4)nc3c2C(C)C)c1 [Compound 120, 5-(5-chloroisoindolin-2-yl)-N-(2-fluoro-5-methoxyphenyl)-3-isopropyl-7-(1H-pyrazol-4-yl)pyrazolo[1,5-a]pyrimidine-2-carboxamide]"
7,7.39,"Cc1nn(C)c(C)c1-c1cc(N2Cc3ccccc3C2)nc2cc(C(=O)Nc3cccc(O)c3)nn12 [Compound 60, N-(3-hydroxyphenyl)-5-(isoindolin-2-yl)-7-(1,3,5-trimethyl-1H-pyrazol-4-yl)pyrazolo[1,5-a]pyrimidine-2-carboxamide]"
8,1.4,"CN(Cc1ccccc1)c1cc(-c2cn[nH]c2)n2nc(C(=O)Nc3ccc(F)cc3)cc2n1 [Compound 35, 5-(benzyl(methyl)amino)-N-(4-fluorophenyl)-7-(1H-pyrazol-4-yl)pyrazolo[1,5-a]pyrimidine-2-carboxamide]"
9,4.38,"COc1cccc(NC(=O)c2cc3nc(N4Cc5ccccc5C4)cc(-c4c(C)nn(C)c4C)n3n2)c1 [Compound 59, 5-(isoindolin-2-yl)-N-(3-methoxyphenyl)-7-(1,3,5-trimethyl-1H-pyrazol-4-yl)pyrazolo[1,5-a]pyrimidine-2-carboxamide]"
10,12.5,"O=C(Nc1cccc(Cl)c1)c1nn2c(-c3cn[nH]c3)cc(N3Cc4ccccc4C3)nc2c1C1CC1 [Compound 98, N-(3-chlorophenyl)-3-cyclopropyl-5-(isoindolin-2-yl)-7-(1H-pyrazol-4-yl)pyrazolo[1,5-a]pyrimidine-2-carboxamide]"
11,2.86,"CN(Cc1cccc(C(F)(F)F)c1)c1cc(-c2cn[nH]c2)n2nc(C(=O)Nc3ccc(Cl)cc3)cc2n1 [Compound 42, N-(4-chlorophenyl)-5-(methyl(3-(trifluoromethyl)benzyl)amino)-7-(1H-pyrazol-4-yl)pyrazolo[1,5-a]pyrimidine-2-carboxamide]"
12,1.2,"COc1cccc(NC(=O)c2cc3nc(N(C)Cc4ccccc4)cc(-c4cn[nH]c4)n3n2)c1 [Compound 5, 5-(benzyl(methyl)amino)-N-(3-methoxyphenyl)-7-(1H-pyrazol-4-yl)pyrazolo[1,5-a]pyrimidine-2-carboxamide]"
13,5.22,"O=C(Nc1cccc(O)c1)c1cc2nc(N3Cc4ccc(Cl)cc4C3)cc(-c3cn[nH]c3)n2n1 [Compound 62, 5-(5-chloroisoindolin-2-yl)-N-(3-hydroxyphenyl)-7-(1H-pyrazol-4-yl)pyrazolo[1,5-a]pyrimidine-2-carboxamide]"
14,6.64,"CN(Cc1ccccc1)c1cc(-c2cn[nH]c2)n2nc(C(=O)Nc3ccc(C#N)cc3)cc2n1 [Compound 12, 5-(benzyl(methyl)amino)-N-(4-cyanophenyl)-7-(1H-pyrazol-4-yl)pyrazolo[1,5-a]pyrimidine-2-carboxamide]"
15,4.91,"CC(C)c1c(C(=O)Nc2cccc(OC(F)(F)F)c2)nn2c(-c3cn[nH]c3)cc(N3Cc4ccccc4C3)nc12 [Compound 73, 5-(isoindolin-2-yl)-3-isopropyl-7-(1H-pyrazol-4-yl)-N-(3-(trifluoromethoxy)phenyl)pyrazolo[1,5-a]pyrimidine-2-carboxamide]"
16,9.67,"C[C@@H](c1ccccc1)N(C)c1cc(-c2cn[nH]c2)n2nc(C(N)=O)cc2n1 [Compound 17, (S)-5-(methyl(1-phenylethyl)amino)-7-(1H-pyrazol-4-yl)pyrazolo[1,5-a]pyrimidine-2-carboxamide]"
17,1.9,"COc1cccc(NC(=O)c2nn3c(-c4cn[nH]c4)cc(N(C)Cc4ccccc4)nc3c2C)c1 [Compound 69, 5-(benzyl(methyl)amino)-N-(3-methoxyphenyl)-3-methyl-7-(1H-pyrazol-4-yl)pyrazolo[1,5-a]pyrimidine-2-carboxamide]"
18,5.2,"COc1cc(NC(=O)c2cc3nc(N(C)Cc4ccccc4)cc(-c4cn[nH]c4)n3n2)ccn1 [Compound 8, 5-(benzyl(methyl)amino)-N-(2-methoxypyridin-4-yl)-7-(1H-pyrazol-4-yl)pyrazolo[1,5-a]pyrimidine-2-carboxamide]"
19,7.62,"COc1cccc(NC(=O)c2nn3c(-c4cn[nH]c4)cc(N4Cc5cccc(F)c5C4)nc3c2C(C)C)c1 [Compound 125, 5-(4-fluoroisoindolin-2-yl)-3-isopropyl-N-(3-methoxyphenyl)-7-(1H-pyrazol-4-yl)pyrazolo[1,5-a]pyrimidine-2-carboxamide]"
20,1.02,"C[C@@H](c1ccccc1)N(C)c1cc(-c2cn[nH]c2)n2nc(C(=O)Nc3cccc(O)c3)cc2n1 [Compound 15, (S)—N-(3-hydroxyphenyl)-5-(methyl(1-phenylethyl)amino)-7-(1H-pyrazol-4-yl)pyrazolo[1,5-a]pyrimidine-2-carboxamide]"
21,16.9,"CN(Cc1ccccc1)c1cc(-c2cn[nH]c2)n2nc(C(N)=O)cc2n1 [Compound 2, 5-(benzyl(methyl)amino)-7-(1H-pyrazol-4-yl)pyrazolo[1,5-a]pyrimidine-2-carboxamide]"
22,12.2,"CN(Cc1ccc(Cl)cc1)c1cc(-c2cn[nH]c2)n2nc(C(=O)Nc3ccc(Cl)cc3)cc2n1 [Compound 44, 5-((4-chlorobenzyl)(methyl)amino)-N-(4-chlorophenyl)-7-(1H-pyrazol-4-yl)pyrazolo[1,5-a]pyrimidine-2-carboxamide]"
23,1.1,"CC(=O)N1CCN(c2ccc(NC(=O)c3nn4c(-c5cn[nH]c5)cc(N5Cc6ccc(Cl)cc6C5)nc4c3C(C)C)cc2)CC1 [Compound 84, N-(4-(4-acetylpiperazin-1-yl)phenyl)-5-(5-chloroisoindolin-2-yl)-3-isopropyl-7-(1H-pyrazol-4-yl)pyrazolo[1,5-a]pyrimidine-2-carboxamide]"
24,2.89,"CC(C)c1c(C(=O)Nc2ccc3cn[nH]c3c2)nn2c(-c3cn[nH]c3)cc(N3Cc4ccc(F)cc4C3)nc12 [Compound 104, 5-(5-fluoroisoindolin-2-yl)-N-(1H-indazol-6-yl)-3-isopropyl-7-(1H-pyrazol-4-yl)pyrazolo[1,5-a]pyrimidine-2-carboxamide]"
25,2.23,"CC(C)c1c(C(=O)Nc2cccc(O)c2)nn2c(-c3cn[nH]c3)cc(N3Cc4ccc(Cl)cc4C3)nc12 [Compound 100, 5-(5-chloroisoindolin-2-yl)-N-(3-hydroxyphenyl)-3-isopropyl-7-(1H-pyrazol-4-yl)pyrazolo[1,5-a]pyrimidine-2-carboxamide]"
26,4.28,"COc1cc(NC(=O)c2cc3nc(N(C)Cc4ccccc4)cc(-c4cn[nH]c4)n3n2)cc(OC)c1 [Compound 9, 5-(benzyl(methyl)amino)-N-(3,5-dimethoxyphenyl)-7-(1H-pyrazol-4-yl)pyrazolo[1,5-a]pyrimidine-2-carboxamide]"
